Laboratory results from patent US7030143B2, “Heterocyclic compounds” (Nippon Shinyaku Co., Ltd., priority 2000, dated 2006).

System: KK-A^y mice
Assay: Effects on carbohydrate and lipid metabolism in KK-A^y mouse
Format: in vivo
Settings: oral, 4 days; for Percent change of each parameter compared to control group (%): AI: Atherogenic Index = (TC − HDL-C)/HDL-C; for Percent change of each parameter compared to control group (%): BG: plasma glucose level; for Percent change of each parameter compared to control group (%): Ins: plasma insulin level; for Percent change of each parameter compared to control group (%): TG: plasma triglyceride level; for Percent change of each parameter compared to control group (%): HDL-C: serum HDL-C level; for Percent change of each parameter compared to control group (%): (V)LDL-C: sum of VLDL-C and LDL-C level in serum
Protocol: The experiment was conducted using the compounds described in the Examples as test compounds and Troglitazone (5-[4-(6-hydroxy-2,5,7,8-tetramethylchroman-2-ylmethoxy)benzyl]-2,4-thiazolidinedione) as a control compound.
Each test compound was orally administered to KK-A^y mice (10 week old, male), NIDDM model animal, for 4 days at a given dosage. On the next day of the last administration, blood was collected from tail end blood vessels under non-fasting conditions to prepare heparinized plasma. Thereafter, blood was collected from an abdominal large vein under pentobarbital anesthesia to prepare serum. The glucose level (BG), triglyceride level (TG) and insulin level (Ins) in plasma were measured using a glucose CII-test Wako (Wako Pure Chemical Industries, Ltd), CLINTECH TG-S (IATORON LABORATORIES, INC.) or triglyceride E-test WAKO (Wako Pure Chemical Industries, Ltd), and a rat insulin measurement kit (Morinaga Biochemistry Research Institute) or REBIS-insulin-mouse-T (Mouse Insulin ELISA (TMB) KIT, Shibayagi Co., Ltd), respectively. Also, the sum of VLDL-C level and LDL-C level in serum (hereinafter, referred to as “(V)LDL-C”), total cholesterol level (TC) and HDL-C level were measured using a high performance liquid chromatography system for the measurement of lipoprotein cholesterol (TOSOH CORPORATION). (V)LDL-C level was measured because VLDL-C and LDL-C cannot be measured separately. Atherogenic Index (AI) was calculated according to the following formula: AI=[(TC level)−(HDL-C level)]/(HDL-C level).

Row | Structure (SMILES) | Percent change of each parameter compared to control group (%): AI (dose 3 mg/kg) [%] | Percent change of each parameter compared to control group (%): BG (dose 3 mg/kg) [%] | Percent change of each parameter compared to control group (%): Ins (dose 3 mg/kg) [%] | Percent change of each parameter compared to control group (%): TG (dose 3 mg/kg) [%] | Percent change of each parameter compared to control group (%): HDL-C (dose 3 mg/kg) [%] | Percent change of each parameter compared to control group (%): (V)LDL-C (dose 3 mg/kg) [%] | Percent change of each parameter compared to control group (%): AI (dose 1 mg/kg) [%] | Percent change of each parameter compared to control group (%): BG (dose 1 mg/kg) [%] | Percent change of each parameter compared to control group (%): Ins (dose 1 mg/kg) [%] | Percent change of each parameter compared to control group (%): TG (dose 1 mg/kg) [%] | Percent change of each parameter compared to control group (%): HDL-C (dose 1 mg/kg) [%] | Percent change of each parameter compared to control group (%): (V)LDL-C (dose 1 mg/kg) [%] | also measured
1 | Cc1oc(-c2ccccc2)nc1/C=C/CCC1COC(C)(C(=O)O)OC1 (stereo not drawn) [Example 53, 2-Methyl-c-5-[4-(5-methyl-2-phenyloxazol-4-yl)-(E)-3-butenyl]-1,3-dioxane-r-2-carboxylic acid] | −62 | −46 | −37 | −51 | 3 | −49 |  |  |  |  |  |  | 
2 | Cc1oc(-c2ccc(C(F)(F)F)cc2)nc1CCCCC1COC(C)(C(=O)O)OC1 (stereo not drawn) [Example 20, 2-Methyl-c-5-{4-[5-methyl-2-(4-trifluoromethylphenyl)-oxazol-4-yl]butyl}-1,3-dioxane-r-2-carboxylic acid] |  |  |  |  |  |  | −44 | −15 | −44 | −31 | 30 | −33 | 
3 | Cc1oc(-c2ccccc2)nc1CCCCCCOC(C)(C)CO [Example 55, 2-Methyl-2-[6-(5-methyl-2-phenyloxazol-4-yl)hexyloxy]-propanol] |  |  |  |  |  |  |  |  |  |  |  |  | Percent change of each parameter compared to control group (%): AI (dose 10 mg/kg): −72%; Percent change of each parameter compared to control group (%): BG (dose 10 mg/kg): −22%; Percent change of each parameter compared to control group (%): Ins (dose 10 mg/kg): 2%; Percent change of each parameter compared to control group (%): TG (dose 10 mg/kg): −45%; Percent change of each parameter compared to control group (%): HDL-C (dose 10 mg/kg): 62%; Percent change of each parameter compared to control group (%): (V)LDL-C (dose 10 mg/kg): −44%
4 | Cc1ccc(-c2nc(CCCCC3COC(C)(C(=O)O)OC3)c(C)o2)cc1C (stereo not drawn) [Example 73, 2-Methyl-c-5-{4-[5-methyl-2-(3,4-dimethylphenyl)-oxazol-4-yl]butyl}-1,3-dioxane-r-2-carboxylic acid] | −85 | −53 | −68 | −92 | −8 | −90 |  |  |  |  |  |  | 
5 | Cc1ccc(-c2nc(CCCCC3COC(C)(C(=O)O)OC3)c(C)o2)cc1F (stereo not drawn) [Example 64, 2-Methyl-c-5-{4-[5-methyl-2-(3-fluoro-4-methylphenyl)-oxazol-4-yl]butyl}-1,3-dioxane-r-2-carboxylic acid] |  |  |  |  |  |  | −72 | −12 | −20 | −53 | 21 | −63 | 
6 | Cc1oc(-c2ccc(C(C)(C)C)cc2)nc1CCCCC1COC(C)(C(=O)O)OC1 (stereo not drawn) [Example 18, c-5-{4-[2-(4-tert-Butylphenyl)-5-methyloxazol-4-yl]butyl}-2-methyl-1,3-dioxane-r-2-carboxylic acid] | −65 | −12 | −1 | −43 | 76 | −20 |  |  |  |  |  |  | 
7 | Cc1oc(-c2ccc(Cl)cc2)nc1CCCCCCOC(C)(C)C(=O)O [Example 39, 2-{6-[2-(4-Chlorophenyl)-5-methyloxazol-4-yl]hexyloxy}-2-methylpropionic acid] |  |  |  |  |  |  | −73 | −14 | −20 | −56 | 36 | −53 | 
8 | Cc1oc(-c2cccs2)nc1CCCCC1COC(C)(C(=O)O)OC1 (stereo not drawn) [Example 75, 2-Methyl-c-5-{4-[5-methyl-2-(2-thienyl)oxazol-4-yl]butyl}-1,3-dioxane-r-2-carboxylic acid] | −61 | −23 | −29 | −47 | 37 | −50 |  |  |  |  |  |  | 
9 | Cc1ccc(-c2nc(CCCCCCOC(C)(C)C(=O)O)c(C)o2)cc1 [Example 37, 2-Methyl-2-{6-[5-methyl-2-(p-tolyl)oxazol-4-yl]hexyloxy}propionic acid] | −70 | −5 | −27 | −51 | 33 | −54 |  |  |  |  |  |  | 
10 | COc1ccc(-c2nc(CCCCC3COC(C)(C(=O)O)OC3)c(C)o2)cc1 (stereo not drawn) [Example 74, 2-Methyl-c-5-{4-[5-methyl-2-(4-methoxyphenyl)oxazol-4-yl]butyl}-1,3-dioxane-r-2-carboxylic acid] | −72 | −18 | −33 | −46 | 55 | −58 |  |  |  |  |  |  | 
11 | Cc1oc(-c2ccccc2)nc1CCCCC1COC(C)(C(=O)O)OC1 (stereo not drawn) [Example 9, 2-Methyl-c-5-[4-(5-methyl-2-phenyloxazol-4-yl)butyl]-1,3-dioxane-r-2-carboxylic acid] |  |  |  |  |  |  | −49 | −12 | −36 | −46 | 36 | −29 | 
12 | Cc1ccc(-c2nc(CCCCC3COC(C)(C(=O)O)OC3)c(C)o2)cc1 (stereo not drawn) [Example 11, 2-Methyl-c-5-{4-[5-methyl-2-(p-tolyl)oxazol-4-yl]butyl}-1,3-dioxane-r-2-carboxylic acid] | −91 | −36 | −16 | −83 | 11 | −89 |  |  |  |  |  |  | 
13 | Cc1c(C)c2c(c(C)c1O)CCC(C)(COc1ccc(CC3SC(=O)NC3=O)cc1)O2 (stereo not drawn) [Troglitazone, 5-[4-(6-hydroxy-2,5,7,8-tetramethylchroman-2-ylmethoxy)benzyl]-2,4-thiazolidinedione, reference compound] |  |  |  |  |  |  |  |  |  |  |  |  | Percent change of each parameter compared to control group (%): AI (dose 300 mg/kg): −7%; Percent change of each parameter compared to control group (%): BG (dose 300 mg/kg): −9%; Percent change of each parameter compared to control group (%): Ins (dose 300 mg/kg): −22%; Percent change of each parameter compared to control group (%): TG (dose 300 mg/kg): −11%; Percent change of each parameter compared to control group (%): HDL-C (dose 300 mg/kg): −8%; Percent change of each parameter compared to control group (%): (V)LDL-C (dose 300 mg/kg): −26%
14 | Cc1oc(-c2ccccc2)nc1CC#CCCCOC(C)(C)C(=O)O [Example 38, 2-Methyl-2-[6-(5-methyl-2-phenyloxazol-4-yl)-4-hexynyloxy]propionic acid] |  |  |  |  |  |  | −65 | −21 | −39 | −50 | 38 | −38 | 
